The test system of series [1] is crayfish. The series is described as follows: Crayfish bioassay (neurotoxicity, paralysis). It counts as in vivo. The settings on record: 20 µg per injection, n=8 crayfish; Kaplan-Meier analysis.
Method: The crayfish assay to determine bioactivity of Cltx was performed at ABC Labs (Columbia, MO, now EAG Labs) using an SOP generated by TransMolecular Inc. Cltx peptide (20 μg) in sterile water was injected through the ventral surface of the thorax in the region of the sub-esophageal ganglion of crayfish which were then subjected to physical challenge defined as multiple, continuous, gentle prods in random parts of the body from head to tail. The animal’s response is based on avoidance, ability to right itself, and clasping with chelae in a defensive manner. Time from injection to total incapacitation was recorded; total incapacitation is defined as the time when the tested crayfish is not responsive when physically challenged.
Series [2] has as its target T1, NRP1 (Homo sapiens, UniProt O14786).
T1 construct: purchased Sino Biological Inc. 10011-H02H
T1 sequence (O14786 22-644 isoform O14786-2 limits assumed): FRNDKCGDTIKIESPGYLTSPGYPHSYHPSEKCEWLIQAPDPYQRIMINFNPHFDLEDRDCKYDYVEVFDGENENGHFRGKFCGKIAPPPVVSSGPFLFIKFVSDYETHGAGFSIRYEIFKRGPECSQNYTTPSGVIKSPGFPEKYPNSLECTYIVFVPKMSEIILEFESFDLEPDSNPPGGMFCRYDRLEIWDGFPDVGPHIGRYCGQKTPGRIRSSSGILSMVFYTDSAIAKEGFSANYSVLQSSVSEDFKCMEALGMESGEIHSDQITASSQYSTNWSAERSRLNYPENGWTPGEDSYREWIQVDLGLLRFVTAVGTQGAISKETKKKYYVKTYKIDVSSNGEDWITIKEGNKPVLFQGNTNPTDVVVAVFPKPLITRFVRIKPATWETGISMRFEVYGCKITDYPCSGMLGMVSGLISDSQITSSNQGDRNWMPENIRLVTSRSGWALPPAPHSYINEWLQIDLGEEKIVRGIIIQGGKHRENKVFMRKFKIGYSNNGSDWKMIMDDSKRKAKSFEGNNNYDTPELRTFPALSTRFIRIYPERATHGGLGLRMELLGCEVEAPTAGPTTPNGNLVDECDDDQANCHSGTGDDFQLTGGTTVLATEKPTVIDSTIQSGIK
The series is described as follows: BLI competition with biotinylated VEGF165 for binding to NRP1. The settings on record: NRP1 fixed at 390 nM, Cltx peptide 50 to 800 μmol/L.

Series [3] concerns the target T1, NRP1. Nature of the series: Bio-layer interferometry (Octet) binding of Cltx and derived peptides to NRP1. The settings on record: BLI; biotinylated peptides on streptavidin biosensors, NRP1 0 to 1750 nM; mean of 2 to 6 independent experiments; ns = no significant binding. As to the method: Octet binding studies required biotinylation of Cltx and derived peptides for loading onto streptavidin biosensors. Trypsin, (Promega Cat# V5280) (~ 40 μg/mL) was added to Cltx biotinylated at K27 or N-terminus (10 mg/mL) and incubated for 24 h at 37 °C, pH 8.5. The resulting peptides were separated by preparative HPLC and peptide fragments were characterized by MALDI. Small linear Cltx-derived peptides were also synthesized by routine methods and were biotinylated at the N-terminus. In some cases, peptides were reduced with TCEP at pH 8 and the cysteine residues were capped using iodoacetamide.
Assessment of binding between NRP1and Cltx was performed by Bio-Layer Interferometry (BLI) using the Octet Red96 System (ForteBio, Pall). Cltx and derived fragments were captured on streptavidin biosensors (Cat# 18–5020) under approximately equivalent loading conditions; sensors were then quenched with EZ-Link Biocytin and washed in assay buffer (PBS, 1% BSA, 0.05% Tween20).

The target of series [4] is T2, Neuropilin-1 (NRP1) (UniProt O14786 22-856).
T2 construct: The R&D Systems NRP1 Phe22-Lys644 (Cat# 3870-N1) was only a control in Western blots
T2 sequence (looked up): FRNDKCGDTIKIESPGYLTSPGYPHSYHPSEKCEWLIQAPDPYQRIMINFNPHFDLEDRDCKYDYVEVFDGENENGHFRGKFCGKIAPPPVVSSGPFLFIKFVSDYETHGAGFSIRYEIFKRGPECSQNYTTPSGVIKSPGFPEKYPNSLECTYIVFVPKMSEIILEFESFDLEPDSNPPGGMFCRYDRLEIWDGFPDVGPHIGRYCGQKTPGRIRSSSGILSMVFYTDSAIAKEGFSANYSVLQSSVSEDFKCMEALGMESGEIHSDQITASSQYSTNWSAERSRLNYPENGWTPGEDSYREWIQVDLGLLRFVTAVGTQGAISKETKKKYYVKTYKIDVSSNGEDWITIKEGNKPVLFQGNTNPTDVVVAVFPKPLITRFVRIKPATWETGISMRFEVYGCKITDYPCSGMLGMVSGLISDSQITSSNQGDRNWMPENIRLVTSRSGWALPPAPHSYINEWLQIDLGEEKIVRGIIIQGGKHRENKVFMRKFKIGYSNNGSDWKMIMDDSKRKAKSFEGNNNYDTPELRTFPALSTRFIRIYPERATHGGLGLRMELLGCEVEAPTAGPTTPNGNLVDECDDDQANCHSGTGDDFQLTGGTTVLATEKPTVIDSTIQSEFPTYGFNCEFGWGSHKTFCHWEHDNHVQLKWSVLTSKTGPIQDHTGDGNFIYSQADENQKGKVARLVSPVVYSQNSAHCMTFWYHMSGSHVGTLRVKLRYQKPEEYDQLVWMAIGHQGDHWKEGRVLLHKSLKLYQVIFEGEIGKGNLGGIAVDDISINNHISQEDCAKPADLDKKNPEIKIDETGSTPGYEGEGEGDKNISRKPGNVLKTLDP
Nature of the series: BLI; affinity of NRP1 for VEGF given beside the peptides of Table 1; set-up for VEGF not told separately. The settings on record: both partners purified.

Peptide text beside a SMILES is read from it. * marks the point of attachment. Biotin = O=C1N[C@H]2[C@H](CS[C@H]2CCCCC(=O)*)N1; Cam = NC(=O)C*

Turning to Chlorotoxin [Cltx-CONH2], the “Median time to paralysis (total incapacitation)” value in series [1] came out at 25 s. Moreover, in series [2], the “Competition with biotinylated VEGF for binding to NRP1” value was “not”.

`CC(C)C[C@H](NC(=O)[C@H](CSCC(N)=O)NC(=O)[C@H](CCC(N)=O)NC(=O)[C@@H]1CCCN1C(=O)CNC(=O)[C@H](Cc1ccc(O)cc1)NC(=O)CCCC[C@@H]1SC[C@@H]2NC(=O)N[C@@H]21)C(=O)N[C@@H](CSCC(N)=O)C(=O)N[C@@H](CCCNC(=N)N)C(=O)O` [C00008] (Biotin-YGPQC(Cam)LC(Cam)R-OH): binding in series [3] was put at a Kd of 297 nM.

On to `CSCC[C@H](NC(=O)CCCC[C@@H]1SC[C@@H]2NC(=O)N[C@@H]21)C(=O)N[C@H]1CSSC[C@@H](C(=O)N[C@@H](Cc2ccccc2)C(=O)N[C@H](C(=O)N[C@H](C(=O)N[C@@H](CC(=O)O)C(=O)N[C@@H](Cc2c[nH]cn2)C(=O)N[C@@H](CCC(N)=O)C(=O)N[C@@H](CCSC)C(=O)N[C@@H](C)C(=O)N[C@@H](CCCNC(=N)N)C(=O)O)[C@@H](C)O)[C@@H](C)O)NC(=O)[C@@H]2CCCN2C(=O)[C@H](CCSC)NC1=O` [C00003], for which the Kd (usually a measure of binding affinity in units of concentration) in series [3] was determined as 167 nM.

With `CC(C)C[C@H](NC(=O)[C@H](CSCC(N)=O)NC(=O)CCCC[C@@H]1SC[C@@H]2NC(=O)N[C@@H]21)C(=O)N[C@@H](CSCC(N)=O)C(=O)N[C@@H](CCCNC(=N)N)C(=O)O` [C00011] (Biotin-C(Cam)LC(Cam)R-OH), in series [3], binding was characterised by a dissociation constant (Kd) of 335 nM.

B1: Biotinylated VEGF165 (ligand)
chain: APMAEGGGQNHHEVVKFMDVYQRSYCHPIETLVDIFQEYPDEIEYIFKPSCVPLMRCGGCCNDEGLECVPTEESNITMQIMRIKPHQGQHIGEMSFLQHNKCECRPKKDRARQENPCGPCSERRKHLFVQDPQTCKCSCKNTDSRCKARQLELNERTCRCDKPRR
modifications: biotin
Turning to B1, the Kd in series [4] was roughly 50 nM.

Values taken from article PMC6580635, “Neuropilin-1 drives tumor-specific uptake of chlorotoxin” (Cell Communication and Signaling : CCS, 2019).
